Tests used:
[1] = biological target: T1, Histone acetyltransferase p300 (Homo sapiens, UniProt Q09472); experiment: Inhibition of human recombinant C-terminal GST-tagged p300 (1195 to 1673 residues) expressed in competent Escherichia coli DH5alpha cells using histone substrate after 30 mins by scintillation counting method in presence of [3H]acetyl-CoA
[2] = biological target: T2, Histone acetyltransferase KAT5 (Homo sapiens, UniProt Q92993); experiment: Inhibition of recombinant human GFP-tagged TIP60 expressed in chicken embryo DT40 cells using histone substrate at 500 uM incubated for 1 hr followed by ionizing radiation treatment by immunosorbent gel assay relative to control; format: cell-based
Target sequence in this assay (Q92993 whole entry, looked up, the tested form may be a part): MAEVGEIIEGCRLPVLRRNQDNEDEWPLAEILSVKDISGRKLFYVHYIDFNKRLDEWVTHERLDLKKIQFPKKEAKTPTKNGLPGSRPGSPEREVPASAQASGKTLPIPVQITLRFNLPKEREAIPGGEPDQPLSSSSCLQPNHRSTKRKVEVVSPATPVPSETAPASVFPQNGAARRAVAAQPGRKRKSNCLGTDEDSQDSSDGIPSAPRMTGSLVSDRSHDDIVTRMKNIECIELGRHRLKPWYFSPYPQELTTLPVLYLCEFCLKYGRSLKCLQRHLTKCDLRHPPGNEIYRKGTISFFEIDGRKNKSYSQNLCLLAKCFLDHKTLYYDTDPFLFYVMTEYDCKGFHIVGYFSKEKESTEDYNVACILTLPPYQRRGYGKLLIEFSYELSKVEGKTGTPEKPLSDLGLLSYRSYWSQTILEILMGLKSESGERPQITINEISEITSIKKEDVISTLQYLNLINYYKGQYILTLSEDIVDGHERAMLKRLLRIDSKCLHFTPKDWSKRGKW

[3] = biological target: T3, Histone acetyltransferase KAT2B (Homo sapiens, UniProt Q92831); experiment: Inhibition of recombinant human PCAF catalytic domain (492 to 658 residues) using histone H3 peptide substrate at 100 uM after 1 hr by liquid scintillation counting method in presence of [3H]acetyl-CoA relative to control
Target sequence in this assay (Q92831 whole entry, looked up, the tested form may be a part): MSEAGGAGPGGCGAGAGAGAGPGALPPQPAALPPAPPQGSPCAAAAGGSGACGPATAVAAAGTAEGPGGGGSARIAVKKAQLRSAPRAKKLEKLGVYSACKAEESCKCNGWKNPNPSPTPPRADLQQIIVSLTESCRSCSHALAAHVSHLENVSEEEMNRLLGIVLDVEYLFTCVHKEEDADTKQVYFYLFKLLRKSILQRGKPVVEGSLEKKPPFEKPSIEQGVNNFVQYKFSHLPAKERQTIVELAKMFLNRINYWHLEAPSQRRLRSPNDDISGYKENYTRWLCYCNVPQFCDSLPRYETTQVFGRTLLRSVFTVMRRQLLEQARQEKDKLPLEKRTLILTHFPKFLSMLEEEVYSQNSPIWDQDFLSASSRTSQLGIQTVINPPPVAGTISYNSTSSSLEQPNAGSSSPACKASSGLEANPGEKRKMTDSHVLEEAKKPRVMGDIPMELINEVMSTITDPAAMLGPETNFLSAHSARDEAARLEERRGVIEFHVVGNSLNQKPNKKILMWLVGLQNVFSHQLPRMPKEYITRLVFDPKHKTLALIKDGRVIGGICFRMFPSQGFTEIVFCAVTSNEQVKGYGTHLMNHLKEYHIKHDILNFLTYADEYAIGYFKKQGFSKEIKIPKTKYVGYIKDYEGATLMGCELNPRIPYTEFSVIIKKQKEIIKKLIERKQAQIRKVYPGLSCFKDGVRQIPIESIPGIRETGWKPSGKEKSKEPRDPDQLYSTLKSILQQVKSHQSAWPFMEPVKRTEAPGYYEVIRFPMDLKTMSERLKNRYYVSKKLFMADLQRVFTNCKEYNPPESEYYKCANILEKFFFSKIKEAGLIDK

[4] = biological target: T1, Histone acetyltransferase p300; experiment: Inhibition of recombinant human p300 catalytic domain (1284 to 1673 residues) using histone H3 peptide substrate at 100 uM after 1 hr by liquid scintillation counting method in presence of [3H]acetyl-CoA relative to control
[5] = biological target: T1, Histone acetyltransferase p300; experiment: Inhibition of recombinant p300 catalytic domain (unknown origin) using N-terminal histone H3 substrate by radiometric filter binding assay in presence of [3H]acetyl-CoA
[6] = biological target: T1, Histone acetyltransferase p300; experiment: Inhibition of recombinant p300 catalytic domain (unknown origin) using N-terminal histone H3 substrate at 52 uM by orthogonal fluorescence assay in presence of [3H]acetyl-CoA relative to control
[7] = biological target: T3, Histone acetyltransferase KAT2B; experiment: Inhibition of PCAF (unknown origin) using H4-15 peptide substrate at 10 uM incubated for 10 mins by radiometric filter binding assay in presence of [14C]acetyl-CoA relative to control
Target sequence in this assay (Q92831 whole entry, looked up, the tested form may be a part): as above

[8] = test system: Saccharomyces cerevisiae; experiment: Inhibition of yeast GCN5 using histone H3 substrate at 10 uM incubated for 2 to 4 mins by SDS-PAGE based autoradiography in presence of [14C]acetyl-CoA relative to control
[9] = test system: Saccharomyces cerevisiae; experiment: Inhibition of yeast RTT109 using histone H3 substrate at 10 uM incubated for 2 to 4 mins by SDS-PAGE based autoradiography in presence of [14C]acetyl-CoA relative to control
[10] = test system: Saccharomyces cerevisiae; experiment: Inhibition of yeast YJW458 TAP-tagged SAS2 expressed in Escherichia coli BL21-CodonPlus(DE3)-RIL cells using histone H3 as substrate at 10 uM incubated for 2 to 4 mins by SDS-PAGE based autoradiography in presence of [14C]acetyl-CoA relative to control
[11] = biological target: Histone acetyltransferase KAT6A (Homo sapiens) (UniProt Q92794); experiment: Inhibition of human MOZ using histone H3 substrate at 10 uM incubated for 2 to 4 mins by SDS-PAGE based autoradiography in presence of [14C]acetyl-CoA relative to control
[12] = biological target: T4, Histone acetyltransferase ESA1 (Saccharomyces cerevisiae (strain ATCC 204508 / S288c) (Baker's yeast), UniProt Q08649); experiment: Inhibition of yeast ESA1 using N-terminal histone H3 substrate by radiometric filter binding based […] in presence of [3H]acetyl-CoA
T4 sequence (Q08649 whole entry): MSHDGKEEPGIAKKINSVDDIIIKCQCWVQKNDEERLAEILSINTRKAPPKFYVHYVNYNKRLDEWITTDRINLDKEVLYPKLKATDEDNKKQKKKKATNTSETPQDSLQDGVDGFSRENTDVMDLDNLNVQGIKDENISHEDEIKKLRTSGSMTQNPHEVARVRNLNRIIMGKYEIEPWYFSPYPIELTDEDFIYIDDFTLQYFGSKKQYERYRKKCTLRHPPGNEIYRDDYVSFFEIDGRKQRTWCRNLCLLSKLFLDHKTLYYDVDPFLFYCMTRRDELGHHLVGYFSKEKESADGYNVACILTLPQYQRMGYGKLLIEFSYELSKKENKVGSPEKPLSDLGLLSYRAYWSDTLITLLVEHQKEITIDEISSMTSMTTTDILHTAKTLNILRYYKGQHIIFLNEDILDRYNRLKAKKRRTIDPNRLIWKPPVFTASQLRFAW

[13] = biological target: T1, Histone acetyltransferase p300; experiment: Inhibition of p300 (unknown origin) using N-terminal histone H4-20 peptide substrate incubated for 10 mins by liquid scintillation counting method in presence of [14C]acetyl-CoA
[14] = biological target: T3, Histone acetyltransferase KAT2B; experiment: Inhibition of PCAF (unknown origin) using N-terminal histone H3-20 peptide substrate incubated for 3.5 mins by liquid scintillation counting method in presence of [3H]acetyl-CoA
Target sequence in this assay (Q92831 whole entry, the tested form may be a part): as the sequence (Q92831 whole entry, looked up, the tested form may be a part) above

[15] = biological target: T2, Histone acetyltransferase KAT5; experiment: Inhibition of full length TIP60 (unknown origin) expressed in Escherichia coli using N-terminal histone H4-20 peptide substrate incubated for 10 mins by liquid scintillation counting method in presence of [3H]acetyl-CoA
Target sequence in this assay (Q92993 whole entry, the tested form may be a part): as the sequence (Q92993 whole entry, looked up, the tested form may be a part) above

[16] = biological target: CREB-binding protein (Homo sapiens, UniProt Q92793); experiment: Inhibition of CBP (unknown origin) using N-terminal histone H3 substrate at 100 uM by radiometric filter binding based phenotypic screen in presence of [3H]acetyl-CoA relative to control
[17] = biological target: T1, Histone acetyltransferase p300; experiment: Inhibition of recombinant p300 catalytic domain (unknown origin) using N-terminal histone H3 substrate by orthogonal fluorescence assay in presence of [3H]acetyl-CoA
[18] = biological target: Histone acetyltransferase KAT2A (Homo sapiens, UniProt Q92830); experiment: Inhibition of GCN5 (unknown origin) using N-terminal histone H3 substrate by radiometric filter binding based phenotypic screen in presence of [3H]acetyl-CoA
Chain of Histone acetyltransferase KAT2A (Q92830 whole entry): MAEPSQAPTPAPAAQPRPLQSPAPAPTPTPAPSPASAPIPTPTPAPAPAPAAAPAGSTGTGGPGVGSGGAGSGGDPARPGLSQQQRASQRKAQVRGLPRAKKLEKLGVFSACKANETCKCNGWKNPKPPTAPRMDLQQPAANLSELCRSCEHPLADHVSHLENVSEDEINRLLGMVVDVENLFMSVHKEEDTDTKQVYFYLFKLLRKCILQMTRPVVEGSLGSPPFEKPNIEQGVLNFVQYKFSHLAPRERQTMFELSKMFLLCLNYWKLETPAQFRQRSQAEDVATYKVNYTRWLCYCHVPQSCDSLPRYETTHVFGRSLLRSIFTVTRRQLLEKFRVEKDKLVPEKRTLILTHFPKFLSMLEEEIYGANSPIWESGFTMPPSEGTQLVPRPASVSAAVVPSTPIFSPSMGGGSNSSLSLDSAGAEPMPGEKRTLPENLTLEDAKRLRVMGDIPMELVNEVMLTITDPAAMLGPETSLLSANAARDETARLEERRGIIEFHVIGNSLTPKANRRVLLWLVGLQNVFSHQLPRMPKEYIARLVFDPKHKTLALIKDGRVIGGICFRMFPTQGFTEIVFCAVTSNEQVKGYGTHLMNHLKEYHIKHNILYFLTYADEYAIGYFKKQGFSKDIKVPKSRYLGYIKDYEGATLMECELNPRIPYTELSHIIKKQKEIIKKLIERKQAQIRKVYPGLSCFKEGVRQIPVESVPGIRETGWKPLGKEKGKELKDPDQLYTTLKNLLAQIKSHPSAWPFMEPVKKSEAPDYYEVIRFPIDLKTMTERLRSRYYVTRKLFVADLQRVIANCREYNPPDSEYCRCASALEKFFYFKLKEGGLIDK

[19] = biological target: T3, Histone acetyltransferase KAT2B; experiment: Inhibition of PCAF (unknown origin) using N-terminal histone H3 substrate by radiometric filter binding based phenotypic screen in presence of [3H]acetyl-CoA
Target sequence in this assay (Q92831 whole entry, the tested form may be a part): as the sequence (Q92831 whole entry, looked up, the tested form may be a part) above

[20] = biological target: T2, Histone acetyltransferase KAT5; experiment: Inhibition of TIP60 (unknown origin) using N-terminal histone H3 substrate at 100 uM by […] in presence of [3H]acetyl-CoA relative to control
Target sequence in this assay (Q92993 whole entry, looked up, the tested form may be a part): as the sequence (Q92993 whole entry, looked up, the tested form may be a part) above

[21] = biological target: Histone acetyltransferase KAT7 (Homo sapiens) (UniProt O95251); experiment: Inhibition of HBO1 (unknown origin) using N-terminal histone H3 substrate at 100 uM by […] in presence of [3H]acetyl-CoA relative to control
[22] = biological target: T1, Histone acetyltransferase p300; experiment: Inhibition of recombinant p300 catalytic domain (unknown origin) using N-terminal histone H3 substrate by radiometric filter binding based phenotypic screen in presence of [3H]acetyl-CoA
[23] = biological target: T1, Histone acetyltransferase p300; experiment: Inhibition of full length recombinant His6-tagged p300 (unknown origin) expressed in baculovirus infected sf21 cells using histone substrate after 10 mins by liquid scintillation counting method in presence of [3H]acetyl-CoA
[24] = biological target: T1, Histone acetyltransferase p300; experiment: Inhibition of full length recombinant human His6-tagged p300 expressed in baculovirus infected Sf21 cells using N-terminal H3 peptide substrate after 10 mins by radiometric filter binding assay in presence of [3H]acetyl-CoA

T1 sequence (Q09472 whole entry, the tested form may be a part): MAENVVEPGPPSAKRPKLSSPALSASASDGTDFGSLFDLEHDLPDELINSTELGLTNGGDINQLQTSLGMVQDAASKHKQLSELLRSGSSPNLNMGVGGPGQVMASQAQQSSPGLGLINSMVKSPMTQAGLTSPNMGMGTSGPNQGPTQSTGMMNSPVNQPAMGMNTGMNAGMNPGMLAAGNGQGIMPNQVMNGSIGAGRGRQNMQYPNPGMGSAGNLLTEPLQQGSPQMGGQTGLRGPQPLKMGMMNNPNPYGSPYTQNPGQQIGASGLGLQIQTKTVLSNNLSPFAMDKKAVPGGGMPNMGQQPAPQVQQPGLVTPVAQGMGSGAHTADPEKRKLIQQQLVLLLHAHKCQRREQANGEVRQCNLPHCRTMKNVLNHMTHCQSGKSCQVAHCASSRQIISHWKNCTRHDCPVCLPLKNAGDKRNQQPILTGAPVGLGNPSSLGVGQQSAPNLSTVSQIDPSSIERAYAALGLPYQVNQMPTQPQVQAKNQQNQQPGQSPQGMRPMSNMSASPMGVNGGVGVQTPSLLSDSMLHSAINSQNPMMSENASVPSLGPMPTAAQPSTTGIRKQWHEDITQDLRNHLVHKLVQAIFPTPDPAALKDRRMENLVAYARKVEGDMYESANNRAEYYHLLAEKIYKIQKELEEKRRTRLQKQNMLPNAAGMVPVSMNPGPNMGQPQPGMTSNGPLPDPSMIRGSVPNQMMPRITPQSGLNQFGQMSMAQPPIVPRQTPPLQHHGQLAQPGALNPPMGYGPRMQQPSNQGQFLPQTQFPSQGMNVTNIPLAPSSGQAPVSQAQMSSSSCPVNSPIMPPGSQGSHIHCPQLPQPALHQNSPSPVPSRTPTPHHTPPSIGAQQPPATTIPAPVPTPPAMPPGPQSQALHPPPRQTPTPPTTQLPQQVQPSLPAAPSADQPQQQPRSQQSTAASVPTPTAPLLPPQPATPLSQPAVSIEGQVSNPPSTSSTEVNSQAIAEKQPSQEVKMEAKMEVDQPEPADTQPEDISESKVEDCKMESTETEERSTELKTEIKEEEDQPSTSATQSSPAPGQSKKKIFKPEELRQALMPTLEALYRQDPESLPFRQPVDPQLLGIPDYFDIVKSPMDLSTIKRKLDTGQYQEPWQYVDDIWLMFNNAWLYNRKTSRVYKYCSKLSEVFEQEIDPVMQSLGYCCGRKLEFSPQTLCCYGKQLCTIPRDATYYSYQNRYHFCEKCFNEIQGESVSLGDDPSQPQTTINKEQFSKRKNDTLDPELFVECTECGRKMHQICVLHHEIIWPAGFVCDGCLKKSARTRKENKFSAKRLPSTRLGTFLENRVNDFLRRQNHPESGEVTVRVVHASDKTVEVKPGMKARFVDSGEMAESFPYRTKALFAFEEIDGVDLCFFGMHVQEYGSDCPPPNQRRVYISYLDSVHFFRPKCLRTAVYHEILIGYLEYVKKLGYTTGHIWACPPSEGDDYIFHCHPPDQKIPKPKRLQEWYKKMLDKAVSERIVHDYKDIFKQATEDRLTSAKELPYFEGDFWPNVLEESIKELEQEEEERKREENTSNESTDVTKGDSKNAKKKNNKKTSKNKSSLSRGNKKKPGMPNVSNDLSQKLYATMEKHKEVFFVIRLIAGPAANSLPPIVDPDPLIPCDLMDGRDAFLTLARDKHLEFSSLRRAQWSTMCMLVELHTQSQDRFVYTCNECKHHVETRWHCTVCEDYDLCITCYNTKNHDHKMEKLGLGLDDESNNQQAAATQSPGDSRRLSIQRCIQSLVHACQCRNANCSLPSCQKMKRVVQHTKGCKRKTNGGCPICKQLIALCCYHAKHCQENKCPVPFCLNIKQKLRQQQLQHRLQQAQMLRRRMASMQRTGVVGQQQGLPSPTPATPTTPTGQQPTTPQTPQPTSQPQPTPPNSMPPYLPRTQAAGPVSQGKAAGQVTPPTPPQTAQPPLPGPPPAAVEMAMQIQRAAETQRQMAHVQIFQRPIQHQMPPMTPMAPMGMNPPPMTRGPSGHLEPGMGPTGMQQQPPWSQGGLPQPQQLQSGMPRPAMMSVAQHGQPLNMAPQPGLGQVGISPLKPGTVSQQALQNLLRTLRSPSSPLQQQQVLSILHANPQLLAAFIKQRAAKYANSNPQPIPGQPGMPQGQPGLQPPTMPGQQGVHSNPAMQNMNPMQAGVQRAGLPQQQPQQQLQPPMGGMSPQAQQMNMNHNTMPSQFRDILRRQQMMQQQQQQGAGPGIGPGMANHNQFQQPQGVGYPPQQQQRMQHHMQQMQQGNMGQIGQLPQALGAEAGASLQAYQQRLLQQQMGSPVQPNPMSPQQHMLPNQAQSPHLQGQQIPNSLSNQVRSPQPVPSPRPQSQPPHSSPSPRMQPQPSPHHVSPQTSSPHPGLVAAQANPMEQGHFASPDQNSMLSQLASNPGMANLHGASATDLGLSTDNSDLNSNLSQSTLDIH

N=C(N)NCCC[C@@H]1NC(=O)/C(=C/c2ccc(O)c(OCC[C@H](NC(=O)C[C@](O)(CC(=O)O)C(=O)O)C(=O)O)c2)NC1=O
IC50 [1]: 0.022 µM

O=C(O)Cn1nnc(-c2ccc(CN(CCCCOc3ccc(CN4CCCC4)cc3)CCc3ccccc3)cc2)n1
inhibition [2]: 60%

CCCCCCCCCCCCCCC=C(C(=O)OCC)C(=O)OCC
inhibition [3]: 37.5%
inhibition [4]: 81.2%

CCCCCCCCCCCCCCCc1cccc(O)c1C(=O)O [ANACARDIC ACID]
IC50 [5]: 4.15 µM
%max [6]: 60%

CC1=NN(c2ccc(C(=O)O)cc2)C(=O)/C1=C\c1ccc(-c2cc(C)c(C)cc2[N+](=O)[O-])o1
inhibition [7]: < 10%
inhibition [8]: < 10%
inhibition [9]: < 10%
inhibition [10]: < 10%
inhibition [11]: < 10%

COc1ccc(C2CC(c3cccs3)=NN2c2nc(-c3ccc(N4C(=O)c5ccccc5C4=O)cc3)cs2)cc1OC (centres undefined)
IC50 [12]: 190 µM
IC50 [13]: 150 µM
IC50 [14]: > 100 µM
IC50 [15]: 149 µM

COc1ccc(S(=O)(=O)ON=C2C=C(C)C(=O)C(C)=C2)cc1
inhibition [16]: 32%
IC50 [17]: 1.98 µM
IC50 [18]: 33.9 µM
IC50 [19]: 34.7 µM
inhibition [20]: 2%
inhibition [21]: 1%
IC50 [22]: 128 µM

COc1ccc(C(=O)C2=C3OC(C)(C)[C@@H](CC=C(C)C)C[C@@]34C[C@@H](/C=C\C(C)C)C(C)(C)[C@@](CC=C(C)C)(C2=O)C4=O)cc1O
IC50 [23]: 5 µM

C=C(C)[C@@H](/C=C/C(C)C)C[C@@]12C[C@@H](/C=C\C(C)C)C(C)(C)[C@@](CC=C(C)C)(C(=O)C(C(=O)c3ccc(O)c(O)c3)=C1O)C2=O
IC50 [24]: 7 µM
